Data on four substances can be found in patent US10393744B2, “Peptides for targeting colorectal cancer, and medical use thereof” (UNIVERSITY OF ULSAN FOUNDATION FOR INDUSTRY COOPERATION, priority 2014, dated 2019).

“Also recorded” adds a separate entry of the source.

In assay [1] the test system is Radio-resistant colorectal cancer tissue of patient (case C65). In words: In vivo/ex vivo imaging and phage elution of Cy5.5-labeled peptide-expressing phages in mouse model transplanted with patient's colorectal cancer tissue (Example 4). Particulars: for in vivo ROI: Cy5.5 fluorescence total flux standardized to Cy5.5 dye control; for pfu/mg (concentration of eluted phages relative to weight of cancer tissue) / ex vivo ROI: extracted cancer tissue; for ex vivo ROI: standardized to Cy5.5 dye control. Further details: species or system nude mouse. The text has this:
(§1) Then, the distributed cancer tissue was kept in a specific preservative solution and transferred directly to an animal chamber, so as to maintain a state in which the cancer tissue was not separated from a patient yet. After an NOD/SCID mouse was anesthetized via intraperitoneal injection of anesthetics, the cancer tissue was cut into pieces each having a size of 3×3 mm. Next, each of both flanks of the NOD/SCID mouse was transplanted with a piece of the cut cancer tissues, and sutured. The NOD/SCID mouse was then recovered on a heating pad for about 2 hours (conditions of the preservative solution: HBSS containing 100 IU/ml penicillin, 100 μg/ml streptomycin, 100 μg/ml gentamicin, 2.5 μg/ml amphotericin B, and 5% fetal bovine serum). After completion of the transplantation, the NOD/SCID mouse was raised until tumors were formed. Meanwhile, the formation and growth of tumors were checked at least once a week. When the transplanted cancer tissues grew to a size of at least 500 mm^3, an extraction process was performed thereon. Then, the extracted cancer tissues were each cut into pieces each having a size of 3×3 mm for subculturing. A nude mouse was anesthetized via intraperitoneal injection of anesthetics, and a piece of the cut cancer tissues was transplanted subcutaneously on the right thigh of the nude mouse. A transplantation site was changed from the flank to the thigh so that irradiation can be locally done without affecting other organs during irradiation. That is, a finally used mouse model transplanted with a patient's colorectal cancer tissue in the present invention was a mouse model established in a way that a cancer tissue that underwent subculturing four times was re-transplanted to form a cancer tissue. When the size of the cancer tissue was increased to about 250 mm^3, only the cancer tissue was irradiated with 2 grays (Gy) of radiation. After having recovery time for no longer than 24 hours, in vivo peptide screening was performed. Here, a non-irradiated population, which is a control group, was also subjected to screening in a separate manner.
(§2) In detail, regarding in vivo imaging verification, the peptide-expressing phage was amplified, and a process of linking a fluorescent probe (Cy5.5) was performed. In particular, 1 μg/μl of N-hydroxysuccinimide esters of Cy5.5 (Amersham) was added to 1 mL of bicarbonate buffer (pH 8.3) having the phage concentration of 10^12 plaque forming units (pfu), and then, in a condition where a dark environment was maintained, a phage-surface protein was linked to the Cy5.5 fluorescent probe at room temperature for 3 hours. That is, amine groups of the phage-surface protein were chemically linked to N-hydroxysuccinimide esters of the Cy5.5 fluorescent probe via a covalent bond. The peptide-expressing phages to which the Cy5.5 fluorescent probe was linked were each obtained by precipitation with 170 μl of 20% (w/v) PEG 8000/2.5 M NaCl solution and purification. To determine a proportion of the Cy5.5 fluorescent probe linked to each of the finally obtained phage samples, an IVIS spectrum imaging system (Xenogen) was used for measurement, and region of interest (ROI) values were determined using the software program of a corresponding device.
(§3) In addition, on the last day of the in vivo imaging, the cancer tissues were each extracted, to thereby obtain ex vivo images thereof.

Assay [2] concerns Radio-sensitive colorectal cancer tissue of patient (case C87). The description is as above. Particulars: for in vivo ROI: Cy5.5 fluorescence total flux standardized to Cy5.5 dye control; for pfu/mg (concentration of eluted phages relative to weight of cancer tissue) / ex vivo ROI: extracted cancer tissue; for ex vivo ROI: standardized to Cy5.5 dye control. On the set-up: species or system nude mouse.
Excerpt: as §1, §2, §3

The subject of assay [3] is colorectal cancer tissue of radio-resistant case (case C65) and radio-sensitive case (case C87). In words: Crossover in vivo imaging of B5 peptide-expressing phage in 4 populations (Example 5). On the set-up: species or system mouse. As to conditions: 4 populations (C65 and C87, irradiated and non-irradiated); tail vein injection, images until 7th day; compared with Cy5.5 dye and empty phage. On the procedure: Among the various peptide-expressing phages selected from the above, the in vivo imaging was attempted again for a B5 peptide, which is a peptide sequence screened only from the irradiated population in the radio-resistant case (case C65). At the same time, to confirm the responsiveness in control groups other than the population of interest, a crossover experiment was carried out. In detail, in the presence of differences in irradiation between the radio-sensitive case and the radio-resistant case of Example 1, the in vivo imaging was carried out to determine the targeting of the B5 peptide sequence in 4 populations in total. Here, the irradiated population of case C65 was set as an experimental group while the non-irradiated population of case C65 and all the populations of case C87 were set as control groups. In the same manner as in Example 4, peptide-expressing phages were amplified and a process of linking a Cy5.5 fluorescent probe was carried out. Then, through the tail vein injection in each population, images thereof were observed until the end of the last 7th day. […]

Assay [4] concerns radio-resistant colorectal cancer patient case (C65) cancer tissue. Description: Immunohistochemical staining of extracted cancer tissues with anti-M13 antibody (Example 6). Particulars: cancer tissues of each population extracted after imaging. It counts as in vivo, mouse. As to the method: To verify histological targeting ability of the B5 peptide sequence verified in Example 5, the imaging of the B5 peptide sequence was obtained. Then, cancer tissues of each population were extracted to prepare paraffin blocks and slices. In detail, (1) the extracted cancer tissues were immersed in a formaldehyde solution at room temperature for 24 hours in terms of for immobilization. Then, following a dehydration process, paraffin was added to the solution through penetration to form paraffin blocks. Afterwards, a microtome was used to manufacture slices having a thickness of 3 μm. To perform real immunohistological staining, (2) following a deparaffinization process performed on the slices, (3) an unmasking process was performed so that structures of various proteins immobilized to the tissue slices were recovered to restore sites where antibodies normally bind. Sequentially, (4) a blocking process was performed using a 5% BSA solution, (5) primary antibodies were bound (wherein the antibodies used herein were anti-mouse M13 IgG recognizing M13 phage capsid proteins), (6) and secondary antibodies were bound while HRP was bound. Afterwards, (7) sites where phages were present were stained using DAB development, (7) the nuclei […] were stained with hematoxylin, and (8) a dehydration process was performed thereon. […]

The subject of assay [5] is radio-resistant colorectal cancer tissue (radio-resistant case 1, other patient). In words: In vivo imaging of B5 peptide-expressing phage in other patients' colorectal cancer tissue (Example 7). Further details: species or system mouse. As to conditions: other patient's radio-resistant tissue, with and without irradiation. On the procedure: (§4) In detail, by extending the crossover experiment verified in Example 4, radio-sensitive case 1 and radio-resistant case 1 regarding other colorectal cancer tissues of a patient characterized as adenocarcinoma were introduced in addition to the radio-sensitive case and the radio-resistant case of Example 1. In the same manner as in Example 4, the B5 peptide-expressing phages were amplified and a process of linking a Cy5.5 fluorescent probe was carried out. Regarding the confirmation of the targeting ability of the B5 peptide, the in vivo imaging was used for observation in the same manner as in Example 5. […] In detail, the targeting ability of the B5 peptide sequence targeting a factor inducing resistance against radiation during radiation therapy in Example 6 was also verified in other colorectal cancer tissues of a radio-resistant patient, thereby confirming the possibility of the B5 peptide sequence as a sequence that is responsive to cancer microenvironments causing induction of resistivity during radiotherapy on colorectal cancer. However, in the patients having radio-sensitive colorectal cancer, it was clearly confirmed that the B5 peptide sequence, as a peptide sequence showing no targeting ability regardless of irradiation, was a sequence selectively tracing a radio-resistant factor. […]

Assay [6] relates to radio-sensitive colorectal cancer tissue (radio-sensitive case 1, other patient). The assay is described as above. Further details: species or system mouse. As to conditions: other patient's radio-sensitive tissue, with and without irradiation. As to the method: as §4
Setting [7] is: case C65, irradiated population (2 Gy).
Where [8] appears, read: case C65, non-irradiated population.
Setting [9] is: case C87, non-irradiated population.
The mark [10] stands for this setting: case C87, irradiated population (2 Gy).

In the case of “SHMEYPR [A1, 7-amino-acid loop peptide expressed on M13 phage, tested as Cy5.5-labeled phage]”, in assay [1] (setting [7]), the “in vivo ROI” value is given as 2.27, the “pfu/mg (concentration of eluted phages relative to weight of cancer tissue)” value is listed as 230 pfu/mg and the “ex vivo ROI” value worked out at 1.89. Further, in assay [1] (setting [8]), the “in vivo ROI” value is listed as 1.77, the “pfu/mg (concentration of eluted phages relative to weight of cancer tissue)” value is listed as 136.36 pfu/mg and the “ex vivo ROI” value stood at 1.27. Further, in assay [2] (setting [9]), the “in vivo ROI” value is listed as 1.68, the “pfu/mg (concentration of eluted phages relative to weight of cancer tissue)” value came to 74.12 pfu/mg and the “ex vivo ROI” value came to 1.72.

Turning to Cy5.5 [reference compound], the “in vivo ROI” value in assay [1] (setting [7]), in assay [1] (setting [8]), in assay [2] (setting [10]) and in assay [2] (setting [9]) was 1.00 throughout. The “ex vivo ROI” value in assay [1] (setting [7]), in assay [1] (setting [8]), in assay [2] (setting [10]) and in assay [2] (setting [9]) was 1.00 in each case.

With TPSFSKI [B5], in assay [1] (setting [7]), the “in vivo ROI” value turned out to be 4.07, the “pfu/mg (concentration of eluted phages relative to weight of cancer tissue)” value is listed as 209.47 pfu/mg and the “ex vivo ROI” value was found to be 2.43. In addition, the “targeting ability by in vivo imaging (crossover experiment)” value in assay [3] was “specific binding of a B5 peptide sequence only to an irradiated population in radio-resistant case; also recorded: only the irradiated population of the radio-resistant case (case C65) has exhibited excellent targeting ability”. Moreover, in assay [4], the “histological targeting ability (immunohistochemical staining of phage)” value is on record as “excellent targeting ability; also recorded: specifically bound only to the irradiated population in the radio-resistant colorectal cancer patient case (C65)”. Also, the “targeting ability by in vivo imaging” value in assay [5] is “exhibited targeting ability only in the case of irradiation”. In assay [6], the “targeting ability by in vivo imaging” value was “did not show any targeting ability regardless of irradiation”.

Turning to “NTGSPYE [A2, 7-amino-acid loop peptide expressed on M13 phage, tested as Cy5.5-labeled phage]”, in assay [1] (setting [8]), the “in vivo ROI” value was found to be 2.04, the “pfu/mg (concentration of eluted phages relative to weight of cancer tissue)” value amounted to 181.48 pfu/mg and the “ex vivo ROI” value came to 1.61. Moreover, in assay [2] (setting [10]), the “in vivo ROI” value was found to be 1.15, the “pfu/mg (concentration of eluted phages relative to weight of cancer tissue)” value worked out at 4.75 pfu/mg and the “ex vivo ROI” value was determined as 2.64. Besides, in assay [2] (setting [9]), the “in vivo ROI” value turned out to be 1.13, the “pfu/mg (concentration of eluted phages relative to weight of cancer tissue)” value was 1.55 pfu/mg and the “ex vivo ROI” value stood at 0.77.
